Values after ≈ are worked out from the molar mass of the structure shown. Active and inactive are the calls of the source. The rule behind the calls is not given here.

As usually defined, the solubility is how much of the substance goes into solution per volume. Lower therefore signals a poorly soluble substance.

Test system in one data set: not listed separately
Put plainly: Aqueous solubility of compound incubated for 24 hrs by LC-MS/MS analysis. Type of data set: physicochemical. As to conditions: aqueous.
`Cc1cc2c(Nc3cnccn3)ccnc2cc1-c1cnc(N2CCN(C)CC2)nc1` displayed a solubility at 24 h of […].

Staying with this data set, now noted: buffer, 24 h.
`Cc1c(-c2cnc(N3CCCN(C)CC3)nc2)ccc2c(Nc3cnccn3)ccnc12` came in with a solubility of 860 µM (≈ 367 µg/mL).

A further data set relates to Schistosoma mansoni. Put plainly: Antiparasitic activity against Schistosoma mansoni infected in Hamster assessed as severity score at 10 uM incubated for 48 hrs. Type of data set: functional, organism-based.
Details: not given
On to `CN1CCN(c2ncc(-c3ccc4c(NC5CCOCC5)ccnc4c3)cn2)CC1`, for which the result was inactive.
For the compound `CN1CCN(c2ncc(-c3ccc4c(NC5CCC(N(C)C)CC5)ccnc4c3)cn2)CC1` (stereo not drawn), the outcome was inactive.
For `COC(=O)C1CCCN1c1ncc(-c2ccc3c(Nc4cnccn4)ccnc3c2)cn1` (stereo not drawn), the result was Active.
Take `COc1ccc(Nc2ccnc3cc(-c4cnc(N5CCCN(C)CC5)nc4)ccc23)cc1Cl`: the outcome was Active.
With `CN1CCN(c2ncc(-c3ccc4c(NCCN5CCCC5)ccnc4c3)cn2)CC1`, the outcome was inactive.
Take `CN1CCCN(c2ncc(-c3ccc4c(Nc5cnccn5)ccnc4c3)cn2)CC1`: the outcome was inactive.
Turning to `CN1CCN(c2ncc(-c3ccc4c(NCC5CCOCC5)ccnc4c3)cn2)CC1`, the outcome was inactive.
Consider `COc1ccc(NC(=O)c2ccc(-c3cnc(N4CCCN(C)CC4)nc3)cc2O)cc1Cl`, for which the result was Active.
`CCCN1CCCN(c2ncc(-c3ccc4c(Nc5cnccn5)ccnc4c3)cn2)CC1`: the outcome was inactive.
`Cc1ccc2[nH]c3c4ccc(-c5cnc(N6CCCN(C)CC6)nc5)cc4ncc3c2c1`: the outcome was Active.
In the case of `CC(C)(C)OC(=O)N1CCN(c2ncc(-c3ccc4c(Nc5cnccn5)ccnc4c3)cn2)CC1`, the result was inactive.
Consider `CN1C[C@H]2C[C@@H]1CN2c1ncc(-c2ccc3c(Nc4cnccn4)ccnc3c2)cn1`, for which the result was inactive.
As to `O=C(O)C1CCCN1c1ncc(-c2ccc3c(Nc4cnccn4)ccnc3c2)cn1` (stereo not drawn), the outcome was inactive.
In the case of `CN1CCCN(c2ncc(-c3ccc4c(Nc5ccncn5)ccnc4c3)cn2)CC1`, the result was inactive.
`Cc1cnc(Nc2ccnc3cc(-c4cnc(N5CCCN(C)CC5)nc4)ccc23)cn1`: the outcome was Active.
Regarding `Cc1c(-c2cnc(N3CCCN(C)CC3)nc2)ccc2c(Nc3cnccn3)ccnc12`, the result was inactive.
Consider `Cc1cc2c(Nc3cnccn3)ccnc2cc1-c1cnc(N2CCN(C)CC2)nc1`, for which the result was Active.

Test system in another data set: not listed separately
Put plainly: Protein binding in human plasma at 1 uM by LC-MS/MS analysis.
Details: not given
In kind it is ADME, cell-free.
Compound `Cc1c(-c2cnc(N3CCCN(C)CC3)nc2)ccc2c(Nc3cnccn3)ccnc12` displayed a PPB of 82%.

The subject of another data set is Schistosoma mansoni. Put plainly: Antiparasitic activity against Schistosoma mansoni infected in Hamster assessed as severity score at 10 uM incubated for 5 hrs. Type of data set: functional, organism-based.
Details: not given
Take `CN1CCN(c2ncc(-c3ccc4c(NC5CCOCC5)ccnc4c3)cn2)CC1`: the result was inactive.
On to `CN1CCN(c2ncc(-c3ccc4c(NC5CCC(N(C)C)CC5)ccnc4c3)cn2)CC1` (stereo not drawn), for which the result was inactive.
Consider `COC(=O)C1CCCN1c1ncc(-c2ccc3c(Nc4cnccn4)ccnc3c2)cn1` (stereo not drawn), for which the outcome was inactive.
As for `COc1ccc(Nc2ccnc3cc(-c4cnc(N5CCCN(C)CC5)nc4)ccc23)cc1Cl`, the result was inactive.
Same read-out and setting: in the case of `CN1CCN(c2ncc(-c3ccc4c(NCCN5CCCC5)ccnc4c3)cn2)CC1` it was “inactive”; in that of `CN1CCCN(c2ncc(-c3ccc4c(Nc5cnccn5)ccnc4c3)cn2)CC1`, “inactive”; in that of `CN1CCN(c2ncc(-c3ccc4c(NCC5CCOCC5)ccnc4c3)cn2)CC1`, “inactive”.
Take `COc1ccc(NC(=O)c2ccc(-c3cnc(N4CCCN(C)CC4)nc3)cc2O)cc1Cl`: the result was inactive.
`CCCN1CCCN(c2ncc(-c3ccc4c(Nc5cnccn5)ccnc4c3)cn2)CC1`: the outcome was inactive.
Take `Cc1ccc2[nH]c3c4ccc(-c5cnc(N6CCCN(C)CC6)nc5)cc4ncc3c2c1`: the outcome was Active.
`CC(C)(C)OC(=O)N1CCN(c2ncc(-c3ccc4c(Nc5cnccn5)ccnc4c3)cn2)CC1`: the result was inactive.
In the case of `CN1C[C@H]2C[C@@H]1CN2c1ncc(-c2ccc3c(Nc4cnccn4)ccnc3c2)cn1`, the outcome was inactive.
As to `O=C(O)C1CCCN1c1ncc(-c2ccc3c(Nc4cnccn4)ccnc3c2)cn1` (stereo not drawn), the outcome was inactive.
With `CN1CCCN(c2ncc(-c3ccc4c(Nc5ccncn5)ccnc4c3)cn2)CC1`, the outcome was inactive.
As for `Cc1cnc(Nc2ccnc3cc(-c4cnc(N5CCCN(C)CC5)nc4)ccc23)cn1`, the outcome was inactive.
Regarding `Cc1c(-c2cnc(N3CCCN(C)CC3)nc2)ccc2c(Nc3cnccn3)ccnc12`, the outcome was inactive.

Test system in another data set: not listed separately
Put plainly: Metabolic stability in human liver microsomes assessed as intrinsic clearance by LC-MS/MS analysis. In kind it is ADME, Microsome.
Details: not given
In general terms: Microsomes from liver hold many membrane-bound enzymes, among them those of drug oxidation.
On to `Cc1c(-c2cnc(N3CCCN(C)CC3)nc2)ccc2c(Nc3cnccn3)ccnc12`, for which the intrinsic clearance worked out at 120 µL/min/mg.
In the case of `Cc1cc2c(Nc3cnccn3)ccnc2cc1-c1cnc(N2CCN(C)CC2)nc1`, the intrinsic clearance was 130 µL/min/mg.

The next data set has as its system Schistosoma mansoni. Put plainly: Antiparasitic activity against Schistosoma mansoni infected in Hamster assessed as severity score at 10 uM incubated for 1 hr. In kind it is functional, organism-based.
Details: not given
`CN1CCN(c2ncc(-c3ccc4c(NC5CCOCC5)ccnc4c3)cn2)CC1`: the result was inactive.
Turning to `CN1CCN(c2ncc(-c3ccc4c(NC5CCC(N(C)C)CC5)ccnc4c3)cn2)CC1` (stereo not drawn), the outcome was inactive.
In the case of `COC(=O)C1CCCN1c1ncc(-c2ccc3c(Nc4cnccn4)ccnc3c2)cn1` (stereo not drawn), the outcome was inactive.
As for `COc1ccc(Nc2ccnc3cc(-c4cnc(N5CCCN(C)CC5)nc4)ccc23)cc1Cl`, the result was inactive.
For the compound `CN1CCN(c2ncc(-c3ccc4c(NCCN5CCCC5)ccnc4c3)cn2)CC1`, the outcome was inactive.
Still for that read-out and setting: next, `CN1CCCN(c2ncc(-c3ccc4c(Nc5cnccn5)ccnc4c3)cn2)CC1`: “inactive”.
On to `CN1CCN(c2ncc(-c3ccc4c(NCC5CCOCC5)ccnc4c3)cn2)CC1`, for which the outcome was inactive.
Take `COc1ccc(NC(=O)c2ccc(-c3cnc(N4CCCN(C)CC4)nc3)cc2O)cc1Cl`: the outcome was inactive.
Take `CCCN1CCCN(c2ncc(-c3ccc4c(Nc5cnccn5)ccnc4c3)cn2)CC1`: the result was inactive.
As to `CC(C)(C)OC(=O)N1CCN(c2ncc(-c3ccc4c(Nc5cnccn5)ccnc4c3)cn2)CC1`, the outcome was inactive.
Same read-out and setting: next, `CN1C[C@H]2C[C@@H]1CN2c1ncc(-c2ccc3c(Nc4cnccn4)ccnc3c2)cn1`: “inactive”.
Consider `O=C(O)C1CCCN1c1ncc(-c2ccc3c(Nc4cnccn4)ccnc3c2)cn1` (stereo not drawn), for which the result was inactive.
Turning to `CN1CCCN(c2ncc(-c3ccc4c(Nc5ccncn5)ccnc4c3)cn2)CC1`, the result was inactive.
For the compound `Cc1cnc(Nc2ccnc3cc(-c4cnc(N5CCCN(C)CC5)nc4)ccc23)cn1`, the result was inactive.
As for `Cc1c(-c2cnc(N3CCCN(C)CC3)nc2)ccc2c(Nc3cnccn3)ccnc12`, the result was inactive.
As to `Cc1cc2c(Nc3cnccn3)ccnc2cc1-c1cnc(N2CCN(C)CC2)nc1`, the result was inactive.

The subject of the next data set is Schistosoma mansoni. Put plainly: Antiparasitic activity against Schistosoma mansoni infected in Hamster assessed as severity score at 10 uM incubated for 24 hrs. In kind it is functional, organism-based.
Details: not given
Turning to `CN1CCN(c2ncc(-c3ccc4c(NC5CCOCC5)ccnc4c3)cn2)CC1`, the outcome was inactive.
For `CN1CCN(c2ncc(-c3ccc4c(NC5CCC(N(C)C)CC5)ccnc4c3)cn2)CC1` (stereo not drawn), the outcome was inactive.
Turning to `COc1ccc(Nc2ccnc3cc(-c4cnc(N5CCCN(C)CC5)nc4)ccc23)cc1Cl`, the outcome was Active.
In the case of `CN1CCN(c2ncc(-c3ccc4c(NCCN5CCCC5)ccnc4c3)cn2)CC1`, the outcome was inactive.
Consider `CN1CCCN(c2ncc(-c3ccc4c(Nc5cnccn5)ccnc4c3)cn2)CC1`, for which the result was inactive.
Take `CN1CCN(c2ncc(-c3ccc4c(NCC5CCOCC5)ccnc4c3)cn2)CC1`: the outcome was inactive.
Take `COc1ccc(NC(=O)c2ccc(-c3cnc(N4CCCN(C)CC4)nc3)cc2O)cc1Cl`: the result was inactive.
For `CCCN1CCCN(c2ncc(-c3ccc4c(Nc5cnccn5)ccnc4c3)cn2)CC1`, the result was inactive.
As for `Cc1ccc2[nH]c3c4ccc(-c5cnc(N6CCCN(C)CC6)nc5)cc4ncc3c2c1`, the result was Active.
Turning to `CC(C)(C)OC(=O)N1CCN(c2ncc(-c3ccc4c(Nc5cnccn5)ccnc4c3)cn2)CC1`, the outcome was inactive.
Turning to `CN1C[C@H]2C[C@@H]1CN2c1ncc(-c2ccc3c(Nc4cnccn4)ccnc3c2)cn1`, the result was inactive.
As for `O=C(O)C1CCCN1c1ncc(-c2ccc3c(Nc4cnccn4)ccnc3c2)cn1` (stereo not drawn), the result was inactive.
As to `CN1CCCN(c2ncc(-c3ccc4c(Nc5ccncn5)ccnc4c3)cn2)CC1`, the result was inactive.
The same measure, in the same setting: next, `Cc1c(-c2cnc(N3CCCN(C)CC3)nc2)ccc2c(Nc3cnccn3)ccnc12`: “inactive”; `Cc1cc2c(Nc3cnccn3)ccnc2cc1-c1cnc(N2CCN(C)CC2)nc1`: “Active”.

Test system in another data set: not listed separately
Description: Cytotoxicity against human HepG2 cells assessed as reduction in cell viability 48 hrs by MTT assay. In kind it is cell-based. The following applies: read-out: TC50. In general terms: Formazan colour is commonly taken as a measure of viable cells.
Regarding `COc1ccc(Nc2ccnc3cc(-c4cnc(N5CCCN(C)CC5)nc4)ccc23)cc1Cl`, the CC50 at 48 h turned out to be 6.8 µM.
Regarding `CCCN1CCCN(c2ncc(-c3ccc4c(Nc5cnccn5)ccnc4c3)cn2)CC1`, the CC50 at 48 h was 17 µM.
Still for that read-out and setting: next, `Cc1ccc2[nH]c3c4ccc(-c5cnc(N6CCCN(C)CC6)nc5)cc4ncc3c2c1`: 4.7 µM; `CN1CCCN(c2ncc(-c3ccc4c(Nc5ccncn5)ccnc4c3)cn2)CC1`: more than 37 µM.

For the origin of these results see ChEMBL document CHEMBL4342475, “Structure-Bioactivity Relationships of Lapatinib Derived Analogs against Schistosoma mansoni” (ACS Med Chem Lett, 2020).
